Conditions: NBDG 1 mg/kg

O=[N+]([O-])c1ccc(N[C@H]2C(O)O[C@H](CO)[C@@H](O)[C@@H]2O)c2nonc12 (some centres unmarked) [NBDG]
NBDG fluorescence localisation (animals pre-injected with ePL, after organ perfusion): highly localized in the heart | NBDG fluorescence in the heart in competition with unlabeled glucose (ePL pre-injected, unlabeled glucose 500 mg/kg): diminished
